From patent US20240277631A1, “SMALL MOLECULE DRUG (ELP-004) TO PREVENT BONE LESIONS CAUSED BY MULTIPLE MYELOMA” (West Virginia University Board of Governors on behalf of …, priority 2023, published 2024) come the findings set out here.

Format in all cases: in vitro ADME
The test system of data set [1] is CYP isoforms CYP1A2, CYP2B6, CYP2C8, CYP2C9, CYP2C19, CYP2D6, and CYP3A4. The data set is described as follows: reversible CYP inhibition in human liver microsomes, summary over all isoforms. The conditions noted are these: any CYP, concentration range 0.02-25 μM. On the procedure: (§1) Depicted in table 2 is cytochrome P450 phenotyping and inhibition by ELP-004. The stability of ELP-004 was tested in the presence of recombinant enzymes CYP1A2, CYP2B6, CYP2C8, CYP2C9, CYP2C19, CYP2D6, and CYP3A4. ELP-004 (1 μM) was incubated with recombinant enzymes and NADPH. The amount of ELP-004 remaining at each timepoint was analyzed by LC-MS/MS. Incubations in control recombinant enzymes were also performed to assess non-enzymatic mediated stability. The intrinsic clearance of ELP-004 was determined. […] A decrease in the formation of the metabolite compared to vehicle control is used to calculate an IC50 value. Metabolite peak area ratio response as a percentage of vehicle control is plotted against the test compound concentration.
For orientation: Microsomes from liver hold many membrane-bound enzymes, among them those of drug oxidation.

The target in a further data set is T1, CYP1A2 (Homo sapiens, UniProt P05177).
T1 sequence (P05177 1-516): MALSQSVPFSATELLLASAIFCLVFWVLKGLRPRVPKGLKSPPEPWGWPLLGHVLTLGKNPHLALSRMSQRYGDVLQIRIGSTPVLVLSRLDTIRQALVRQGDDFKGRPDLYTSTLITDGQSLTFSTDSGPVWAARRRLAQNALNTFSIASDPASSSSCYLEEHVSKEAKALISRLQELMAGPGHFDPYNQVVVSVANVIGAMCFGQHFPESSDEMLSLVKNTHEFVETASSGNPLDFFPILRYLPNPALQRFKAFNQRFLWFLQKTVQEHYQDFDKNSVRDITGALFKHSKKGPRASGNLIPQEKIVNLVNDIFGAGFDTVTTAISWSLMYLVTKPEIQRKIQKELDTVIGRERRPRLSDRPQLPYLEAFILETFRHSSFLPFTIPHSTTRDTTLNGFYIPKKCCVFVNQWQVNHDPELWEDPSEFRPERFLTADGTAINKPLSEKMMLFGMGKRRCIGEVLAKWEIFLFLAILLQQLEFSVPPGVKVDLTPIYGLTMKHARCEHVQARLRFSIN
Kind of data set: stability with recombinant CYP1A2. The following applies: recombinant CYP1A2, intrinsic clearance, read-out: Recombinant CYP CLINT. The procedure:
as §1

A further data set deals with T2, CYP2C8 (Homo sapiens, UniProt P10632).
T2 sequence (P10632 1-490): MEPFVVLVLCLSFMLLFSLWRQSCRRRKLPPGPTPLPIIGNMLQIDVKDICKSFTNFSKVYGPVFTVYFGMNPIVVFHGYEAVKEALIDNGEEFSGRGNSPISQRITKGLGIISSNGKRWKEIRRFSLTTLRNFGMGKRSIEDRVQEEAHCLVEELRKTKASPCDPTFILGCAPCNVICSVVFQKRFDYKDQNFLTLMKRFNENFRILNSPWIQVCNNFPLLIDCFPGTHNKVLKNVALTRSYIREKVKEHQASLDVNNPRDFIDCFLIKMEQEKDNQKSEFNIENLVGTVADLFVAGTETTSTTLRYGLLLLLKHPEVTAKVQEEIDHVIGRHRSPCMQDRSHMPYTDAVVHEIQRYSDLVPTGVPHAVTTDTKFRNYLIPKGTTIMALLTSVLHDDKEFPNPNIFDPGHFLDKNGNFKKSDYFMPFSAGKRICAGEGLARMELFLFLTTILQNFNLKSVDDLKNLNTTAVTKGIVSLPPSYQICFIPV
The data set is described as follows: stability with recombinant CYP2C8. The following applies: recombinant CYP2C8, intrinsic clearance, read-out: Recombinant CYP CLINT. On the procedure:
as §1

For the compound `CCC(=O)N(C)c1ccc(Cl)c(Cl)c1` [ELP-004, N-(3,4-dichlorophenyl)-N-methylpropanamide], in data set [1], the “reversible inhibition of CYP isoforms” value is given as “did not inhibit”. In addition, the microsomal CLint at 1 μM at CYP1A2 came to 2.85 µL/min/mg; at CYP2C8 it was 0.219 µL/min/mg.
